Values of other authors in US20160174603A1, “Electronic Vapor Liquid Composition and Method of Use” (priority 2014, published 2016).
One block for each molecule: values may come before it.

Assays:
[1] = molecular target: T1, TRPC6 receptor (Homo sapiens, UniProt Q9Y210)
T1 sequence (Q9Y210 1-931): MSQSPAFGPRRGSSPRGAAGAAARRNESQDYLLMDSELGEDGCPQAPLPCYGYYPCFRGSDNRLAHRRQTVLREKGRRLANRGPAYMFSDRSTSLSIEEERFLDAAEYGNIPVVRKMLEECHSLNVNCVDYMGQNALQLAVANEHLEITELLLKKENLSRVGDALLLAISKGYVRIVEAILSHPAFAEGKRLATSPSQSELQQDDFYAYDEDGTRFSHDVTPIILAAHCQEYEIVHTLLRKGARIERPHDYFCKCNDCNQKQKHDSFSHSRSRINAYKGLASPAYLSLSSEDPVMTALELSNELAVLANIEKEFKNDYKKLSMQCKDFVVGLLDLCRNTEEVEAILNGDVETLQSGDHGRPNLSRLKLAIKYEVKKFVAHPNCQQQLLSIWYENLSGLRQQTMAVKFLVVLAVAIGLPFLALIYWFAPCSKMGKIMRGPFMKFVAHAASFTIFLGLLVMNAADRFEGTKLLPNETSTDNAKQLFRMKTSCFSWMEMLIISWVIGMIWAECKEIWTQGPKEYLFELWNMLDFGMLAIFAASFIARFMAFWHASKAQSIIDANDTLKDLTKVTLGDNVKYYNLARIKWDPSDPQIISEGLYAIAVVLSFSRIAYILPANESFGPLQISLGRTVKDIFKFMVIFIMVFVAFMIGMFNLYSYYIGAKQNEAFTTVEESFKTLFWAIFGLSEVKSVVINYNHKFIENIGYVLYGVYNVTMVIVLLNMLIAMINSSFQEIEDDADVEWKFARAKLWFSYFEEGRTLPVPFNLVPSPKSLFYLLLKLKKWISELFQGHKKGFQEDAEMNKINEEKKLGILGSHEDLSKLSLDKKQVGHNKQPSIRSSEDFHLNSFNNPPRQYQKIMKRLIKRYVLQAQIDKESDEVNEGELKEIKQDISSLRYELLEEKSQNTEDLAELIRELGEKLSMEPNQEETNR

[2] = molecular target: norepinephrine transporter (NAT) (Homo sapiens, UniProt P23975); conditions: both enantiomeric forms
[3] = tested on: calcium channel
[4] = tested on: NMDA-induced current
[5] = molecular target: T2, MAO-B (Homo sapiens, UniProt P27338); conditions: read-out: Ki, reversible MAO-B inhibitor
T2 sequence (P27338 1-520): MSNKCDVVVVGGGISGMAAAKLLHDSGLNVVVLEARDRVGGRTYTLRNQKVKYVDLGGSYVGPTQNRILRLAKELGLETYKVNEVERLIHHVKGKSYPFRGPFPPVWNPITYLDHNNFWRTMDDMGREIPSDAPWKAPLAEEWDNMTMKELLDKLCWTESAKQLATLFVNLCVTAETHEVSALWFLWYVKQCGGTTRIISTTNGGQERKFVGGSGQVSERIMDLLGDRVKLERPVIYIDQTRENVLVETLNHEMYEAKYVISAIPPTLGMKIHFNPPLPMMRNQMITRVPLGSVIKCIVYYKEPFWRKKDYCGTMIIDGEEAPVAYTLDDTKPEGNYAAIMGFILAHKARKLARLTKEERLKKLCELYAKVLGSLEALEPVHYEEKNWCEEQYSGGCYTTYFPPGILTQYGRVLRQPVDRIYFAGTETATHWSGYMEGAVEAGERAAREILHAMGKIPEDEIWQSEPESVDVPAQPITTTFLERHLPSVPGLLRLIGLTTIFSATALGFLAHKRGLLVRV

[6] = tested on: dopamine levels in the nucleus accumbens; conditions: rat, in vivo
[7] = tested on: thermal hyperalgesia
[8] = tested on: adenosine receptor; conditions: in vitro
[9] = molecular target: acetylcholinesterase (Homo sapiens, UniProt P22303); conditions: in vitro
Sequence of acetylcholinesterase (P22303 32-614, species assumed): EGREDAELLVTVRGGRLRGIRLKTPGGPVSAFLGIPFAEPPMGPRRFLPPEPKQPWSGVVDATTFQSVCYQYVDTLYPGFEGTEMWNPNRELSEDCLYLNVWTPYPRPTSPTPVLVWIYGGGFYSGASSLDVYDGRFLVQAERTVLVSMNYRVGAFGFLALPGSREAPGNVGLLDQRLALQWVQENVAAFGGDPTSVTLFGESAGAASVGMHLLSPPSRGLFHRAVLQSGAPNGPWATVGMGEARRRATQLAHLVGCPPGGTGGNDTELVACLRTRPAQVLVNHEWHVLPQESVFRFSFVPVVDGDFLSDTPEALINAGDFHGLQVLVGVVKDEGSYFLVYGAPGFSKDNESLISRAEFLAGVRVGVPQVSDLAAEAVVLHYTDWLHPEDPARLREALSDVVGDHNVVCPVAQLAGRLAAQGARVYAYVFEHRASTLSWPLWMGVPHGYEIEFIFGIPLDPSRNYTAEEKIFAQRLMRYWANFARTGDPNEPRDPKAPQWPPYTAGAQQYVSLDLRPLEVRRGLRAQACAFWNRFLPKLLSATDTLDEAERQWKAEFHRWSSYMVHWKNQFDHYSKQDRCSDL

Sequence of norepinephrine transporter (NAT) (P23975 whole entry): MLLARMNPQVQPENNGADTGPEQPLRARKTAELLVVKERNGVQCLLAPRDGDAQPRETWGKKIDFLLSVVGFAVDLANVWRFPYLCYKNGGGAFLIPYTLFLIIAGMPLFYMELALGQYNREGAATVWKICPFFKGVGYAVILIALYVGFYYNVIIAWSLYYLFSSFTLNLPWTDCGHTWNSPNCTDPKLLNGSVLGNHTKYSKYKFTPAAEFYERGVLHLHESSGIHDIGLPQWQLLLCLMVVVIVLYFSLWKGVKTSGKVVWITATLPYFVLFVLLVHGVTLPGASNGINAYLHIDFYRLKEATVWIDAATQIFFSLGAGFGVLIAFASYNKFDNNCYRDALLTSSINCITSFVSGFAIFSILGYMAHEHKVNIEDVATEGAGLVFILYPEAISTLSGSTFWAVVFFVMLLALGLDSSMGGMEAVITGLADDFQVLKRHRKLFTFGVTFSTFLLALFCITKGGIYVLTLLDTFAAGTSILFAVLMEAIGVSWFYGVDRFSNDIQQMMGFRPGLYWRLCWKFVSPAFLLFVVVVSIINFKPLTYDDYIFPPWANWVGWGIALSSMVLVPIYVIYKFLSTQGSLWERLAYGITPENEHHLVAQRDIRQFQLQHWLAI

Molecule: CC(C)=CCC[C@]1(C)[C@@H](CC=C(C)C)C[C@@]2(CC=C(C)C)C(=O)[C@]1(C(=O)C(C)C)C(=O)C(CC=C(C)C)=C2O [Hyperforin]
TRPC6 receptor activity [1]: TRPC6 receptor agonists

Molecule: COC1=CC(=O)O[C@@H](/C=C/c2ccccc2)C1 [Kavain]
reuptake of norepinephrine at the transporter (NAT) [2]: inhibits the reuptake of norepinephrine

Molecule: CC[C@H]1CN2CC[C@]3(C(=O)Nc4ccccc43)[C@@H]2C[C@@H]1/C(=C\OC)C(=O)OC [rhynchophylline]
calcium channel activity [3]: calcium channel blocker
effect on NMDA-induced current [4]: reduces NMDA-induced current

Ki [5]: 280 nM
Molecule: COc1cc(/C=C/c2ccccc2)oc(=O)c1 [Desmethoxyyangonin]
dopamine levels in the nucleus accumbens [6]: able to increase dopamine levels

Molecule: O=C(O)[C@H]1O[C@@H](Oc2cc3oc(-c4ccccc4)cc(=O)c3c(O)c2O)[C@H](O)[C@@H](O)[C@@H]1O [Baicalin]
effects in a rat model of thermal hyperalgesia [7]: anti-inflammatory and analgesic effects

Molecule: C=C1C(=O)O[C@@H]2[C@H]3C(CO)=CC(=O)C3=C(C)C[C@@H](O)[C@@H]12 [lactucin]
adenosine receptor activity [8]: adenosine receptor agonist

TRPC6 receptor activity [1]: TRPC6 receptor agonists
Molecule: CCC(C)C(=O)[C@]12C(=O)[C@](CC=C(C)C)(C[C@H](CC=C(C)C)[C@@]1(C)CCC=C(C)C)C(=O)C(CC=C(C)C)=C2O (stereo partly shown) [adhyperforin]

Molecule: lactucopicrin
acetylcholinesterase activity [9]: acetylcholinesterase inhibitor
